Eight molecules from patent US9980986B2, “Methods of producing pancreatic hormones” (ViaCyte, Inc., priority 2006, dated 2018) can be followed below.

Holding throughout (assay type): cell-based
For assay [1], the system named is Human embryonic stem cells. Nature of the assay: hESC 17-day 4-step differentiation with or without retinoic acid, real-time quantitative PCR. The settings on record: retinoic acid about 0.1-5 μM for at least about 1 day. The protocol: Human embryonic stem cells were differentiated for 17 days via a 4-step protocol to achieve islet hormone-expressing cells. The first step comprised 5 days differentiation in activin A (100 ng/mL) to robustly produce DE (D'Amour, K., et al., Nature Biotechnology 23, 1534-1541, (2005)). Step 2 comprised 2 days differentiation in RPMI with 2% FBS containing FGF10 (50 ng/mL) and KAAD-cyclopamine (1 μM) followed by 2 more days that also contained DAPT (1 μM). Step 3 comprised 5 days differentiation in CMRL with B27 supplement (1:100) containing FGF10 (50 ng/mL), KAAD-cyclopamine (1 μM), DAPT (1 μM) and either with or without the addition of retinoic acid (1 μM). The fourth step comprised 4 days differentiation in CMRL with B27 supplement (1:100) containing nicotinamide (10 mM), exendin 4 (50 ng/mL), hepatocyte growth factor (HGF 25 ng/mL), and insulin-like growth factor (IGF)-1 (50 ng/mL). Duplicate samples were taken from each plate at multiple time points and gene expression was analyzed by real-time quantitative PCR.

The test system of assay [2] is Human embryonic stem cells. The assay can be described thus: hESC 16-day 4-step or 5-step differentiation time course, real-time quantitative PCR. The protocol:
Human embryonic stem cells were differentiated for 16 days via either a 4-step or 5-step protocol to achieve islet hormone-expressing cells. The first step comprised 3 days differentiation in activin A (100 ng/mL) to robustly produce DE (D'Amour, K., et al., Nature Biotechnology 23, 1534-1541, (2005)). Step 2 comprised 3 days differentiation in RPMI with 2% FBS containing FGF10 (50 ng/mL) and KAAD-cyclopamine (0.2 μM). In the 4-step protocol, step 3 comprised 4 days differentiation in CMRL with B27 supplement (1:100) containing FGF10 (50 ng/mL), KAAD-cyclopamine (0.2 μM), retinoic acid (2 μM), and DAPT (1 μM). In the 5-step protocol, this 4 day period was broken into two separate treatments in the same base media. For 2 days the media contained FGF10 (50 ng/mL), KAAD-cyclopamine (0.2 μM), and retinoic acid (2 μM). During the subsequent 2 days, the FGF10 was removed and the gamma-secretase inhibitor DAPT (1 μM) was added. The last step of both protocols comprised 6 days differentiation in DMEM with B27 supplement (1:100) containing nicotinamide (10 mM), exendin 4 (40 ng/mL), hepatocyte growth factor (HGF 25 ng/mL), and insulin-like growth factor (IGF)-1 (50 ng/mL). Duplicate samples were taken from each plate at multiple time points and gene expression was analyzed by real-time quantitative PCR.

In assay [3] the test system is Human embryonic stem cells. The assay can be described thus: hESC 19-day 5-step differentiation with varying DAPT concentrations, real-time quantitative PCR. To be noted: DAPT 0, 1, 3 or 10 μM for 2 days in step 4. The protocol: Human embryonic stem cells were differentiated for 19 days via a 5-step protocol to achieve islet hormone-expressing cells. The first step comprised 5 days differentiation in activin A (100 ng/mL) to robustly produce DE (D'Amour, K., et al., Nature Biotechnology 23, 1534-1541, (2005)). Step 2 comprised 2 days differentiation in RPMI with 2% FBS containing FGF10 (50 ng/mL) and KAAD-cyclopamine (0.5 μM). Step 3 comprised 4 days differentiation in CMRL with B27 supplement (1:100) containing FGF10 (50 ng/mL), KAAD-cyclopamine (0.2 μM), and retinoic acid (1 μM). The fourth step comprised 2 days treatment with CMRL with B27 supplement (1:100) containing exendin 4 (40 ng/mL) and with varying concentrations of the gamma secretase inhibitor DAPT (0 μM, 1 μM, 3 μM, or 10 μM). The last step comprised 6 days differentiation in DMEM with B27 supplement (1:100) containing nicotinamide (10 mM), exendin 4 (40 ng/mL), and insulin-like growth factor (IGF)-1 (50 ng/mL). Duplicate samples were taken from each plate and gene expression was analyzed by real-time quantitative PCR.

The test system of assay [4] is Human embryonic stem cell lines. Nature of the assay: hESC differentiation by 5-step 17-day protocol (treatments i-iv), gene expression by real-time quantitative PCR. The settings on record: KAAD-cyclopamine maintained in the presence of retinoic acid during step 3.
Method: Human embryonic stem cell lines were differentiated for 17 days via a 5-step protocol to produce pancreatic islet hormone-expressing cells. […] Step 2 comprised 3 days differentiation in RPMI with 2% FBS containing one of the following: (a) 100 ng/mL activin A (treatment i), (b) no exogenous growth factors (treatment ii), or (c) 50 ng/mL FGF10 and 0.5 μM KAAD-cyclopamine (treatments iii and iv). Step 3 comprised 3 days differentiation in CMRL with B27 supplement (1:100) containing either (a) 2 μM retinoic acid (treatments i-iii) or (b) 2 μM retinoic acid and 0.5 μM KAAD-cyclopamine (treatment iv). Steps 4 and 5 were the same for all conditions (treatments i-iv). Step 4 comprised 2 days differentiation in CMRL with B27 supplement (1:100) containing 1 μM DAPT and 40 ng/mL exendin 4. Step 5 comprised 5 days differentiation in CMRL with B27 supplement (1:100) containing 40 ng/mL exendin 4. Duplicate samples were taken from each plate at multiple time points and gene expression was analyzed by real-time quantitative PCR.
Assay [5] deals with Human embryonic stem cells. Nature of the assay: PDX1 protein and mRNA expression under different media conditions. The settings on record: insulin about 0.2-20 μg/ml or insulin-like growth factor about 10-500 ng/ml. The protocol:
Human embryonic stem cells were differentiated in RPMI medium containing activin A (100 ng/ml) for 5 days. The FBS concentrations changed from 0% for the first 24 hours followed by 0.2% for the next 24 hrs and then to 2% for the remaining 3 days. During the next 4 days, the plates were subjected to different media conditions. They were either incubated in i) RPMI with 2% FBS and activin A (100 ng/ml), ii) RPMI with 2% FBS, activin A (25 ng/ml) and retinoic acid, iii) CMRL with 0.2% FBS and B27 supplement (1:100), activin A (25 ng/ml) and retinoic acid, and iv) CMRL with 0.2% FBS and B27 supplement (1:100), activin A (25 ng/ml), retinoic acid and exendin (40 ng/ml). The concentration of retinoic acid changed from 2 μM for 48 hours followed by 1 μM for 24 hours to 0.2 μM for the last 24 hours. The cells were harvested for protein and mRNA analyses on days 7, 8 and 9.
Without sufficient insulin signaling, PDX1 mRNA was expressed without significant translation into PDX1 protein (FIGS. 4A-4B). The base medium can be RPMI, CMRL, OptiMEM or DMEM with or without 2% FBS. If the base medium is supplemented with sufficient insulin/IGF and FGF10, PDX1 protein will be expressed.

Assay [6] relates to Human ESCs. The assay can be described thus: hESC differentiation to insulin-expressing cells using noggin without exogenous retinoids, real-time PCR. The protocol:
Human ESCs were differentiated to definitive endoderm cells via treatment with activin A (100 ng/ml) and Wnt3a (25 ng/ml) in RPMI+0% FBS for the first day and then for 2 more days with activin A (100 ng/ml) alone in RPMI+0.2% v/v FBS. Definitive endoderm was differentiated to foregut endoderm by treatment with KGF (50 ng/ml) and KAAD-cyclopamine (0.25 μM) for 3 days in RPMI+2% v/v FBS. Differentiation then proceeded in DMEM+1% v/v B27 supplement containing KGF (50 ng/ml) and KAAD-cyclopamine (0.25 μM) for one day followed by 5 additional days of the same with or without the addition of noggin (100 ng/ml). The B27 supplement used was either with (B27+) or without (B27-) vitamin A. On days 13, 14 and 15 of differentiation, the KGF was removed but the KAAD-cyclopamine (0.25 μM) and noggin (when used) remained in the culture medium. The differentiation medium for days 16-19 consisted of CMRL+1% v/v B27 (with or without vitamin A as in previous conditions) with no additional factors. Cultures were sampled in duplicate on days 3, 6, 9, 12, 15 and 19 of differentiation and analyzed for expression of pancreatic markers using real-time PCR.
A general note: Quantitative PCR measures a nucleic acid by following its amplification.

Assay [7] has as its system Human embryonic stem cells. Nature of the assay: hESC 21-day 4-step differentiation with three step-1 conditions, real-time quantitative PCR. To be noted: activin A 100 ng/ml, or follistatin 50 ng/ml and noggin 100 ng/ml. The protocol: Human embryonic stem cells were differentiated for 21 days via a 4-step protocol to achieve islet hormone-expressing cells. Three different conditions were used for the first step after which all plates received the identical treatment. The first step comprised 5 days differentiation under one of the following conditions: i) activin A (100 ng/ml) to robustly produce DE (D'Amour, K., et al., Nature Biotechnology 23, 1534-1541, (2005)), ii) 2% FBS with no exogenous growth factors, thereby producing mesoderm and extraembryonic endoderm, or iii) follistatin (50 ng/ml) and noggin (100 ng/ml), thereby producing neural ectoderm. Step 2 comprised 3 days differentiation in RPMI with 2% FBS containing FGF10 (50 ng/mL) and KAAD-cyclopamine (1 μM). Step 3 comprised 5 days differentiation in CMRL with B27 supplement (1:100) containing FGF10 (50 ng/mL), KAAD-cyclopamine (1 μM), retinoic acid (2 μM), and DAPT (1 μM). The fourth step consisted of 8 days differentiation in DMEM with B27 supplement (1:100) containing nicotinamide (10 mM), exendin 4 (40 ng/mL), hepatocyte growth factor (HGF-25 ng/mL), and insulin-like growth factor (IGF)-1 (50 ng/mL). Duplicate samples were taken from each plate at multiple time points and gene expression was analyzed by real-time quantitative PCR.

Assay [8] concerns Human ESCs. Nature of the assay: hESC differentiation using combination of noggin and retinoic acid, QPCR. The protocol: Human ESCs were differentiated to definitive endoderm via treatment with activin A (100 ng/ml) and Wnt3a (25 ng/ml) in RPMI+0% FBS for the first day and then for 2 more days with activin A (100 ng/ml) alone in RPMI+0.2% v/v FBS. Definitive endoderm was differentiated to foregut endoderm by treatment with KGF (50 ng/ml) and KAAD-cyclopamine (0.25 μM) for 3 days in RPMI+2% v/v FBS. Differentiation then proceeded for 3 days in DMEM+1% v/v B27 supplement containing KAAD-cyclopamine (0.25 μM) and all-trans retinoic acid (0.1 μM or 2 μM) with or without the addition of noggin (0, 30 or 100 ng/ml). This was followed by a 2 day treatment period with the gamma-secretase inhibitor DAPT (1 μM) provided in DMEM+1% v/v B27 and subsequently the cells were cultured in CMRL+1% v/v B27 with no additional growth factors.

[9] abbreviates: noggin 100 ng/ml, B27 with or without vitamin A.

Regarding `CC1=C(/C=C/C(C)=C/C=C/C(C)=C/C(=O)O)C(C)(C)CCC1` [retinoic acid, all-trans retinoic acid], the “Effect on insulin expression” value in assay [1] is recorded as “insulin was not expressed unless retinoic acid was applied”. In addition, in assay [2] (retinoic acid 2 μM in step 3), the “Effect on HNF6 and PDX1 expression” value is “robustly increased expression of HNF6 and PDX1”.

`C[C@H](NC(=O)Cc1cc(F)cc(F)c1)C(=O)N[C@H](C(=O)OC(C)(C)C)c1ccccc1` [DAPT, N—[N-(3,5-difluorophenacetyl)-L-alanyl]-S-phenylglycine t-butyl ester]: the “Effect on expression of pancreatic hormones and transcription factors after 19 days” value in assay [3] was “very little to no insulin, glucagon, somatostatin or principal pancreatic transcription factors were produced in the absence of DAPT”. Moreover, in assay [2] (2-4 day application of DAPT in terminal days of RA addition or after RA withdrawal), the “Effect on NGN3 and PAX4 expression” value is “transient induction of NGN3 and PAX4 expression”.

For the molecule `CC1=C2C[C@H]3[C@@H](CC=C4CC(=O)CC[C@@]43C)[C@@H]2CC[C@]12O[C@@H]1C[C@H](C)CN(CCNC(=O)CCCCCNC(=O)CCc3ccccc3)[C@H]1[C@H]2C` [KAAD-cyclopamine], the “Increase of performance of endocrine differentiation relative to treatment iii” value in assay [4] is reported as 2 fold.

Regarding insulin: insulin as medium supplement, the “Effect on PDX1 protein expression” value in assay [5] is recorded as “promotes the expression of PDX1 protein”.

With insulin-like growth factor, in assay [5], the “Effect on PDX1 protein expression” value was “promotes the expression of PDX1 protein”.

`CC1=C(/C=C/C(C)=C/C=C/C(C)=C/CO)C(C)(C)CCC1` [vitamin A, retinol, reference compound]: in the assay on Human ESCs [6] (B27 supplement with versus without vitamin A), the “Magnitude of pancreatic hormone expression” value is recorded as “enhanced by the presence of vitamin A”.

B1: activin A: growth factor of the TGFβ superfamily (protein, UniProt P08476 311-426, looked up)
Inhibin beta A chain: GLECDGKVNICCKKQFFVSFKDIGWNDWIIAPSGYHANYCEGECPSHIAGTSGSSLSFHSTVINHYRMRGHSPFANLKSCCVPTKLRPMSMLYYDDGQNIIKKDIQNMIVEECGCS
For the molecule B1, in assay [7], the “Lineage marker expression at 5 days of differentiation (step 1)” value is given as “robust production of definitive endoderm”.

B2: noggin: recombinant human Noggin (protein, UniProt Q13253 28-232, looked up)
Noggin: QHYLHIRPAPSDNLPLVDLIEHPDPIFDPKEKDLNETLLRSLLGGHYDPGFMATSPPEDRPGGGGGAAGGAEDLAELDQLLRQRPSGAMPSEIKGLEFSEGLAQGKKQRLSKKLRRKLQMWLWSQTFCPVLYAWNDLGSRFWPRYVKVGSCFSKRSCSVPEGMVCKPSKSVHLTVLRWRCQRRGGQRCGWIPIQYPIISECKCSC
Consider B2, for which, in the assay on Human ESCs [6] (noggin 100 ng/ml), the “Expression of pancreatic hormones INS, GCG, SST and GHRL” value is reported as “also dependent on the presence of noggin”. For the same molecule, in the assay on Human ESCs [6] (setting [9]), the “Induction of PDX1 gene expression” value is on record as “not dependent on either noggin treatment” and the “NGN3 expression induced at day 12 (pancreatic endocrine differentiation)” value was “highly dependent on the presence of noggin”. Moreover, the “Expression levels of PDX1 at days 9 or 11” value in the assay on Human ESCs [8] (noggin 0, 30 or 100 ng/ml with retinoic acid 0.1 μM or 2 μM) is given as “very little effect”. In addition, in the assay with Human ESCs [8] (noggin added to low dose RA (0.1 μM)), the “Expression of NGN3 at day 9” value was “dramatically enhanced”.
